Data as given in patent US11608383B2, “Bispecific antibody against CD3 and CD20 in combination therapy for treating follicular lymphoma” (GENMAB A/S, priority 2020, dated 2023).

Assays:
[1] = tested on: follicular lymphoma; settings: double-refractory cases; Salles et al., Haematologica 2017; cited from earlier work
[2] = tested on: T cells; experiment: T-cell activation with immobilized anti-CD3 in the presence of lenalidomide; format: cell-based; settings: lenalidomide 5 or 50 μM with CD3 crosslinking, 3 days, vs no lenalidomide
Protocol: T cells were pre-incubated with assay medium or lenalidomide in the absence or presence of CD3 crosslinking by immobilized anti-CD3 for 3 days (as indicated on the x-axes), after which upregulation of CD69, CD25, PD-1 and LAMP-1 on CD4^+ and CD8^+ T cells was determined by flow cytometry. Data shown are geomean fluorescence intensities (FI) for four donors (each circle represents one condition for one donor). Pre-incubation conditions are shown on the x-axis.
(§1) Briefly, T cells were activated with immobilized anti-CD3 in the presence (5 or 50 μM) or absence of lenalidomide for 3 days. […] T cells that were activated in the presence or absence of lenalidomide were subsequently tested for their cytotoxic capacity in response to epcoritamab.

[3] = target: T1, CD20 (Homo sapiens, UniProt P11836); settings: rituximab versus IgG1-CD20; different epitopes; cited from earlier work
T1 sequence (P11836 1-297): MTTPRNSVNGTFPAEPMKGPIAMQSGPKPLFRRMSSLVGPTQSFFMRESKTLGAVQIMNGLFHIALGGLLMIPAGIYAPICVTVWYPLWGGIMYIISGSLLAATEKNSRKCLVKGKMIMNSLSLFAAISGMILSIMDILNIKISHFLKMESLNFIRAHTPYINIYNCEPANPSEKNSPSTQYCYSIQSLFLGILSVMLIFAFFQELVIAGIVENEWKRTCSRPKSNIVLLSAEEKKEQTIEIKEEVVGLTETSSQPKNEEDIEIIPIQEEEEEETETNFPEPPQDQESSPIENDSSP

[4] = tested on: primary DLBCL and follicular lymphoma patient biopsies; settings: biopsies taken after administration of an anti-CD20 antibody; cited from earlier work
[5] = tested on: CD20-expressing Daudi cells; experiment: T-cell-mediated cytotoxicity assay with lenalidomide-pre-treated T cells; format: cell-based; settings: T cells pre-treated with lenalidomide and anti-CD3; E:T ratio 2:1
Protocol: T cells were incubated with (5 or 50 μM) or without lenalidomide in the absence or presence of immobilized anti-CD3 for 3 days. T cells were then used in a cytotoxicity assay with DuoBody-CD3×CD20 or DuoBody-CD3×ctrl (containing a CD3 arm and a non-binding control arm) and CD20-expressing Daudi cells as target cells (E:T ratio 2:1). Data shown are average percentages cytotoxicity±SD of duplicates, normalized to medium control (no antibody, no lenalidomide).
as §1

[6] = tested on: CD20-expressing Raji-luc tumor cells; settings: NOD-SCID mice with Raji-luc cells and PBMCs; even with excess IgG1-RTX-FEAR; cited from earlier work

CC[C@H](Nc1ncnc2[nH]cnc12)c1nc2cccc(F)c2c(=O)n1-c1ccccc1 [idelalisib]
1-year PFS [1]: 43%

Nc1cccc2c1CN(C1CCC(=O)NC1=O)C2=O (stereo not shown) [lenalidomide, 3-(4-Amino-1-oxo-1,3-dihydro-2H-isoindol-2-yl) piperidine-2,6-dione]
T-cell activation (upregulation of CD69, CD25; release of granzyme B and IFNγ) [2]: increased T-cell activation

IgG1-CD20: CD20 antibody of which the CD20 arm of epcoritamab is derived (7D8)
Competition for CD20 binding [3]: compete for CD20 binding

epcoritamab: IgG1 bispecific CD3×CD20 antibody; heavy/light chain pairs SEQ ID NOs: 24/25 and 26/27; CAS 2134641-34-0
T-cell-mediated cytotoxicity in patient biopsies [4]: induced T-cell-mediated cytotoxicity | Activity at lower epcoritamab concentrations [5]: higher activity at lower epcoritamab concentrations | Maximum percent cytotoxicity [5]: Higher maximum percent cytotoxicity | Tumor growth in xenograft model [6]: effectively reduce tumor growth
